The results in this text go back to paper PMC6816013 (Journal of Medicinal Chemistry, 2019).

Series [1] deals with Plasmodium falciparum 3D7A. Nature of the series: microbe, parasite or virus in culture. To be noted: read-out: Pf EC50.
The test system of series [2] is P. falciparum strain 3D7A. It is filed as cell-based, Plasmodium falciparum. The conditions noted are these: PRR, 10 × EC50, result in words.
For series [3] the following is noted: Tables 2 and 5.
In a further series the target is HSA (Homo sapiens, UniProt P02768). Nature of the series: HSA binding (plasma protein binding). It is filed as in vitro ADME.
The next series in a line: Cell cytotoxicity assay. It is filed as cell-based. The conditions noted are these: cytotoxicity EC50 / Pf EC50.

pEC50: −log10 of the molar value. Counter-ions that a name gives are not always drawn.

Broadly, the pEC50 is −log10 of the EC50, conventionally taken in molar units.

Sequence of HSA (P02768 25-609): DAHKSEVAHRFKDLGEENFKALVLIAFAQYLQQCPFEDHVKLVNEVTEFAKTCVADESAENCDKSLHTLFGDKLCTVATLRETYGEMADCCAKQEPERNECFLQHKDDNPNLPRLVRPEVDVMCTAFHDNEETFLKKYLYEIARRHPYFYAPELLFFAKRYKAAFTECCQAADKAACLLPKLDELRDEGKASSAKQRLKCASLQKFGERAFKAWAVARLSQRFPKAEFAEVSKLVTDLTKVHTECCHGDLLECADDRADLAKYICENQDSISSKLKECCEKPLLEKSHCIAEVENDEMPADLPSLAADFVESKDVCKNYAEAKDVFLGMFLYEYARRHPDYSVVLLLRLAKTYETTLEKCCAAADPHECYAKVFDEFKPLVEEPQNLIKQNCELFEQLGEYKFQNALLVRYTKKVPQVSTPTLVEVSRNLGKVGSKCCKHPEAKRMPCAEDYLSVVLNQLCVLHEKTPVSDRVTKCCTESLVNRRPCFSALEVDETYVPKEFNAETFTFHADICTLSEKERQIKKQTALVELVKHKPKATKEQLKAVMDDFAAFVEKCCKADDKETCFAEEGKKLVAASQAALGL

For `Nc1nc(-c2ccc(F)cc2)c(-c2ccnc(Nc3ccc(N4CCOCC4)cc3)n2)s1` [Compound 13, 4-[2-Amino-4-(4-fluorophenyl)-1,3-thiazol-5-yl]-N-[4-(morpholin-4-yl)phenyl]pyrimidin-2-amine], the pEC50 in series [1] was under 5.30.

As for `C[C@H]1[C@H](OC(=O)CCC(=O)O)O[C@@H]2O[C@@]3(C)CC[C@H]4[C@H](C)CC[C@@H]1[C@@]24OO3` [artesunate], the “rate of killing in PRR study” value in series [2] is reported as “fast rate of killing”.

`Cc1nnc(Nc2nccc(-c3sc(C4CCNCC4)nc3-c3ccc(F)cc3)n2)s1` [Compound 20, N-(4-(4-(4-Fluorophenyl)-2-(piperidin-4-yl)thiazol-5-yl)pyrimidin-2-yl)-5-methyl-1,3,4-thiadiazol-2-amine] gave an AMP in series [3] of 8e-07 cm/s. On HSA, this compound showed an HSA binding of 92%.

In the case of `O=C1C(O)=C([C@H]2CC[C@H](c3ccc(Cl)cc3)CC2)C(=O)c2ccccc21` [atovaquone], in series [2], the “rate of killing in PRR study” value is reported as “slow rate of killing”.

In series [3], `Fc1ccc(-c2nc(C3CCNCC3)sc2-c2ccnc(Nc3cnccn3)n2)cc1` [Compound 26, 4-(4-(4-Fluorophenyl)-2-(piperidin-4-yl)thiazol-5-yl)-N-(pyrazin-2-yl)pyrimidin-2-amine] came in with an AMP of 1.6e-06 cm/s. The HSA binding at HSA is reported as 92%.

In the case of `Cc1csc(Nc2nccc(-c3sc(C4CCNCC4)nc3-c3ccc(F)cc3)n2)n1` [Compound 21, N-(4-(4-(4-Fluorophenyl)-2-(piperidin-4-yl)thiazol-5-yl)pyrimidin-2-yl)-4-methylthiazol-2-amine], in series [3], the AMP was 1.5e-06 cm/s. The compound also returned an HSA binding at HSA of 96%.

`Cc1nccc(Nc2nccc(-c3sc(C4CCNCC4)nc3-c3ccc(F)cc3)n2)n1` [Compound 29, 4-[4-(4-Fluorophenyl)-2-(piperidin-4-yl)-1,3-thiazol-5-yl]-N-(2-methylpyrimidin-4-yl)pyrimidin-2-amine] displayed an AMP in series [3] of 1.8e-06 cm/s. This compound also registered an HSA binding at HSA of 91%.

Consider `Cc1cc(Nc2nccc(-c3sc(C4CCNCC4)nc3-c3ccc(F)cc3)n2)on1` [Compound 22, N-(4-(4-(4-Fluorophenyl)-2-(piperidin-4-yl)thiazol-5-yl)pyrimidin-2-yl)-3-methylisoxazol-5-amine], for which, in series [3], the AMP turned out to be 1.2e-06 cm/s. On HSA, this compound had an HSA binding of 94%.

In the case of `CN1CCN(c2ccc(Nc3nccc(-c4sc(C5CCNCC5)nc4-c4ccc(F)cc4)n3)cc2)CC1` [Compound 7, reference compound], the “cytotoxicity/cell activity safety window” value in the series “Cell cytotoxicity assay” amounted to 5.4. For the same compound, the HSA binding on HSA was determined as 97%.

With `Cc1cc(Nc2nccc(-c3sc(C4CCNCC4)nc3CN3CCCCC3)n2)ccn1` [Compound 60, N-(2-Methylpyridin-4-yl)-4-(4-(piperidin-1-ylmethyl)-2-(piperidin-4-yl)thiazol-5-yl)pyrimidin-2-amine Trihydrochloride], in “Cell cytotoxicity assay”, the “cytotoxicity/cell activity safety window” value was 105. Besides, in series [2], the “rate of killing in PRR study” value is “potent fast-killing properties”.

With `Cc1cc(Nc2nccc(-c3sc(C4CCNCC4)nc3-c3ccc(F)cc3)n2)ccn1` [Compound 31, 4-(4-(4-Fluorophenyl)-2-(piperidin-4-yl)thiazol-5-yl)-N-(2-methylpyridin-4-yl)pyrimidin-2-amine], the “cytotoxicity/cell activity safety window” value in “Cell cytotoxicity assay” was determined as 25. For the same compound, the AMP in series [3] was determined as 2.1e-06 cm/s. Besides, the “rate of killing in PRR study” value in series [2] was “extremely fast-killing effect”. The compound also gave an HSA binding on HSA of 97.8%.

With `Cc1cc(Nc2nccc(-c3sc(C4CCNCC4)nc3-c3ccc(F)cc3)n2)nn1C` [Compound 23, N-(1,5-Dimethyl-1H-pyrazol-3-yl)-4-(4-(4-fluorophenyl)-2-(piperidin-4-yl)thiazol-5-yl)pyrimidin-2-amine], the AMP in series [3] was 2e-06 cm/s. Further, the HSA binding on HSA was 93%.

For the compound `CCc1nc(N)nc(N)c1-c1ccc(Cl)cc1` [pyrimethamine], in series [2], the “rate of killing in PRR study” value was “moderate rate of killing”.

For the compound `OC(CNc1nccc(-c2sc(C3CCNCC3)nc2-c2ccc(F)cc2)n1)c1ccncc1` (stereo not drawn) [Compound 40, 2-({4-[4-(4-Fluorophenyl)-2-(piperidin-4-yl)-1,3-thiazol-5-yl]pyrimidin-2-yl}amino)-1-(pyridin-4-yl)ethanol], the pEC50 in series [1] was 5.98. This compound showed an AMP in series [3] of 1e-07 cm/s. The compound further had an HSA binding at HSA of 85%.

As to `Fc1ccc(-c2nc(C3CCNCC3)sc2-c2ccnc(Nc3ccccn3)n2)cc1` [Compound 25, 4-(4-(4-Fluorophenyl)-2-(piperidin-4-yl)thiazol-5-yl)-N-(pyridin-2-yl)pyrimidin-2-amine], in series [3], the AMP stood at 3.3e-06 cm/s. For the same compound, the HSA binding at HSA amounted to 94%.

As for `Fc1ccc(-c2nc(C3CCNCC3)oc2-c2ccnc(Nc3ccncn3)n2)cc1` [Compound 28B], the AMP in series [3] worked out at 1.9e-06 cm/s. The HSA binding at HSA came out at 89%.

Regarding `Cc1nc(Nc2nccc(-c3sc(C4CCNCC4)nc3-c3ccc(F)cc3)n2)ccc1F` [Compound 35, N-(5-Fluoro-6-methylpyridin-2-yl)-4-(4-(4-fluorophenyl)-2-(piperidin-4-yl)thiazol-5-yl)pyrimidin-2-amine], the AMP in series [3] was 3e-06 cm/s. For the same compound, the HSA binding on HSA came to 96%.
